The source of these data is US7659293B2, “α-Amino-N-hydroxy-acetamide derivatives” (Novartis AG, priority 2001, dated 2010).

This experiment relates to BN472 rat mammary carcinoma. Kind of experiment: Spontaneous metastases model, BN472 rat mammary tumors transplanted orthotopically. The class given is in vivo. The settings on record: 4 weeks, vehicle control about 230. The procedure: Tumor fragments of ca. 25 mm^3 are transplanted under the mammary fat pad of female Brown-Norwegian (BN) rats. A compound of formula I is suspended in 1% carboxymethyl cellulose (CMC) in sterile water. The formulations are administered orally at doses of either 30 mg/kg once per day or 15 mg/kg twice per day. Animals in the tumor-bearing control group and the non-tumor-bearing control group (healthy rats) receive vehicle only. Treatment starts after randomization and continues for 4 weeks. Lung metastases are determined after four weeks of treatment by counting the number of lesions visible on the surface of the lungs after fixation in Bouin's fixative. In this model the compounds of formula I at a dose of either 30 mg/kg once per day or 15 mg/kg twice per day produce reductions in the incidence and/or extent of metastases in lungs and regional lymph nodes. The reduction in the median number of lung metastases or weight of regional lymph nodes is between approximately 25% and 70%. For Example, for the compound of Example 3 the median number of lung foci is about 105 for both dosages compared to a median number of about 230 lung foci in the vehicle control group. Based on the increase in body weight and general health, the compounds appear to be well tolerated. […]

As to `O=C(CN(Cc1ccc(-n2nccn2)cc1)S(=O)(=O)c1ccc(OCC2CC2)cc1)NO` [Example 3, [(4-Cyclopropylmethoxy-benzenesulfonyl)-(4-[1,2,3]triazol-2-yl-benzyl)amino]-N-hydroxy-acetamide], the “median number of lung foci” value was “about 105” (15 mg/kg twice per day orally) and “about 105” (30 mg/kg once per day orally).
